From US20070270501A1, “Medicaments for Treating Barrett's Eesophagus” (Medical Research Council, priority 2004, published 2007)
“Also recorded” adds a separate entry of the source. Each block holds one compound with its values, some of them ahead of it.

Tests used:
RAR = conditions: cited from earlier work
[1] = test system: CYP26A1 in squamous cell line (NES); test: RT-PCR of CYP26A1 expression in squamous cells; assay type: cell-based; conditions: squamous cells / normal squamous epithelium
Description: Expression of CYP26A1 in Barrett's (BAR, Qhtert) and squamous cell line (NES) is examined by RT-PCR. […] The control when nil is added is denoted by N. The LRAT is the enzyme for retinyl ester formation from excessive retinol.

[2] = test system: squamous oesophageal biopsies; test: Ex vivo organ culture of squamous oesophageal biopsies with retinoic acid
RARs = conditions: pan-RAR antagonist; read-out: Kd for binding to RARs; cited from earlier work
[3] = test system: Barrett's oesophagus biopsies; test: Ex vivo organ culture of Barrett's oesophagus biopsies with citral; assay type: cell-based, human
[4] = test system: retinoid X receptor (RXR); conditions: cited from earlier work
[5] = retinoic acid transformed tissue compared with native counterpart
[6] = citral transformed tissue compared with native counterpart

SMILES: CC1(C)CCC(C)(C)c2cc3c(cc21)CCc1c(-c2ccc(C(=O)O)cc2)nn(Cc2cccnc2)c1-3 [compound 55, 4-[4,5,7,8,9,10-hexahydro-7,7,10,10-tetramethyl-1-(3-pyridylmethyl)anthra[2,1-d]pyrazol-3-yl]benzoic acid]
effectiveness of RAR antagonism (RAR): most effective

SMILES: CC1(C)CCC(C)(C)c2cc3c(cc21)SCc1c(-c2ccc(C(=O)O)cc2)cn(Cc2cccnc2)c1-3 [compound 40, 4-[4,5,7,8,9,10-hexahydro-7,7,10,10-tetramethyl-1-(3-pyridylmethyl)-5-thiaanthral[1,2-b]pyrrol-3-yl]benzoic acid]
effectiveness of RAR antagonism (RAR): most effective

Ki-67 staining [2, 5]: reduced Ki-67 staining
SMILES: CC1=C(/C=C/C(C)=C/C=C/C(C)=C/C(=O)O)C(C)(C)CCC1 [retinoic acid, all-trans retinoic acid]
CYP26A1 expression / regulation [1]: not induced
squamous tissue with glandular phenotype (villiform surface and mucosal glands) ([2]; after 48 hours retinoic acid in culture, 8/31 explants): 26%
epithelial markers by RT-PCR ([2]; full thickness squamous epithelial biopsy (NE)): induced the glandular epithelial markers CK 8/18 and 7 with reduction of the squamous epithelial CK13
cytokeratin expression (immunohistochemistry) ([2]; retinoic acid induced glandular tissue, 48 hours): expresses cytokeratins CK8/18 and CK7 but not CK13
BrdU incorporation [2, 5]: lack of BrdU incorporation
p21 expression ([2]; retinoic acid treated squamous tissue): enhanced p21 expression
villin (immunohistochemistry) ([2]; retinoic acid treated tissue): strongly induced

SMILES: CCc1ccc(C2=CC(C)(C)Sc3ccc(C#Cc4ccc(C(=O)O)cc4)cc32)cc1 [AGN194310]
Kd (RARs): 2.5 nM

SMILES: CC1(C)CCC(C)(C)c2cc3c(cc21)CCc1c(-c2ccc(C(=O)O)cc2)cn(Cc2cccnc2)c1-3 [compound 31, 4-[4,5,7,8,9,10-hexahydro-7,7,10,-10-tetramethyl-1-(3-pyridylmethyl)anthra[1,2-b]pyrrol-3-yl]benzoic acid]
effectiveness of RAR antagonism (RAR): most effective

Ki-67 staining [3, 6]: reduced Ki-67 staining
SMILES: CC(C)=CCCC(C)=CC=O [citral, 3,7-dimethyl-2,6-octadienal]
Barrett's explants with squamous phenotype ([3]; after 48 h citral in culture, 5/10 explants): 50%
BrdU incorporation [3, 6]: lack of BrdU incorporation
cytokeratin expression (immunohistochemistry) ([3]; citral treated Barrett's explants, 48 h): expression of CK13 and CK14, but not CK8/18
CYP26A1 expression / regulation [1]: depression of CYP26A1 activity; also recorded: down-regulated

SMILES: CCCN1c2ccccc2N=C(c2ccc(C(=O)O)cc2)c2cc3c(cc21)C(C)(C)CCC3(C)C [HX603]
RXR antagonistic activity [4]: selective antagonistic activity

SMILES: CC1=C(/C=C/C(C)=C/C=C/C(C)=C/CO)C(C)(C)CCC1 [retinol]
CYP26A1 expression / regulation [1]: not induced
